In brackets after ≈: the same amount, converted by molar mass. Blank lines part the entries; values can stand above or below the compound they belong to.
Legend:
[1] = tested on: Enterobacter aerogenes E-19; assay: Minimum inhibitory concentration, agar dilution technique; assay type: cell-based; settings: Klebsiella aerogenes, E19; beta-lactam-resistant strain; heart infusion agar; inoculum 10^6 cells/ml; read-out: Minimum Inhibitory Concentration (M.I.C.)
Text: (§1) Minimum Inhibitory Concentration (M.I.C. in μg/ml)**
(§2) *Beta-lactam-resistant strain.
(§3) **Medium heartinfusion agar (Difco Lab.); inoculum size 10^6 cells/ml
(§4) determined by the agar dilution technique

Escherichia coli RGN823 = assay: as above; assay type: cell-based; settings: RGN823, read-out: Minimum Inhibitory Concentration (M.I.C.)
Text: as §1, §2, §3, §4

[2] = tested on: Klebsiella pneumoniae K13; assay: as above; assay type: cell-based; settings: K13, beta-lactam-resistant strain, heart infusion agar, inoculum 10^6 cells/ml, read-out: Minimum Inhibitory Concentration (M.I.C.)
Text: as §1, §2, §3, §4

Proteus vulgaris GN76 = assay: as above; assay type: cell-based; settings: beta-lactam-resistant strain, heart infusion agar, inoculum 10^6 cells/ml, read-out: Minimum Inhibitory Concentration (M.I.C.)
Text: as §1, §2, §3, §4

Proteus sp. P-22 = assay: as above; assay type: cell-based; settings: beta-lactam-resistant strain; heart infusion agar; inoculum 10^6 cells/ml; read-out: Minimum Inhibitory Concentration (M.I.C.)
Text: as §1, §2, §3, §4

Serratia marcescens T55 = assay: as above; assay type: cell-based; settings: beta-lactam-resistant strain, heart infusion agar, inoculum 10^6 cells/ml, read-out: Minimum Inhibitory Concentration (M.I.C.)
Text: as §1, §2, §3, §4

Enterobacter cloacae 45 = assay: as above; assay type: cell-based; settings: beta-lactam-resistant strain, heart infusion agar, inoculum 10^6 cells/ml, read-out: Minimum Inhibitory Concentration (M.I.C.)
Text: as §1, §2, §3, §4

[3] = tested on: Citrobacter freundii GN346; assay: as above; assay type: cell-based; settings: beta-lactam-resistant strain, heart infusion agar, inoculum 10^6 cells/ml, read-out: Minimum Inhibitory Concentration (M.I.C.)
Text: as §1, §2, §3, §4

Serratia marcescens S-18 = assay: as above; assay type: cell-based; settings: S18, beta-lactam-resistant strain, heart infusion agar, inoculum 10^6 cells/ml, read-out: Minimum Inhibitory Concentration (M.I.C.)
Text: as §1, §2, §3, §4

[4] = tested on: Pseudomonas aeruginosa NCTC 10490; assay: as above; assay type: cell-based; settings: NCTC10490, beta-lactam-resistant strain, heart infusion agar, inoculum 10^6 cells/ml, read-out: Minimum Inhibitory Concentration (M.I.C.)
Text: as §1, §2, §3, §4

[5] = tested on: Pseudomonas aeruginosa IFO 3445; assay: as above; assay type: cell-based; settings: IFO3445, beta-lactam-resistant strain, heart infusion agar, inoculum 10^6 cells/ml, read-out: Minimum Inhibitory Concentration (M.I.C.)
Text: as §1, §2, §3, §4

[6] = tested on: Staphylococcus aureus 209P; assay: as above; assay type: cell-based; settings: heart infusion agar, inoculum 10^6 cells/ml, read-out: Minimum Inhibitory Concentration (M.I.C.)
Text: as §1, §3, §4

Enterobacter sp. E-8 = assay: as above; assay type: cell-based; settings: SP.E8, heart infusion agar, inoculum 10^6 cells/ml, read-out: Minimum Inhibitory Concentration (M.I.C.)
Text: as §1, §3, §4

Providencia sp. P-8 = assay: as above; assay type: cell-based; settings: SP.P8, heart infusion agar, inoculum 10^6 cells/ml, read-out: Minimum Inhibitory Concentration (M.I.C.)
Text: as §1, §3, §4

[7] = tested on: Comamonas terrigena B-996; assay: as above; assay type: cell-based; settings: B996, heart infusion agar, inoculum 10^6 cells/ml, read-out: Minimum Inhibitory Concentration (M.I.C.)
Text: as §1, §3, §4

Sarcina lutea = assay: as above; assay type: cell-based; settings: Micrococcus luteus; heart infusion agar; inoculum 10^6 cells/ml; read-out: Minimum Inhibitory Concentration (M.I.C.)
Text: as §1, §3, §4

[8] = tested on: Staphylococcus aureus Russell; assay: as above; assay type: cell-based; settings: heart infusion agar, inoculum 10^6 cells/ml, read-out: Minimum Inhibitory Concentration (M.I.C.)
Text: as §1, §3, §4

[9] = tested on: Bacillus subtilis ATCC 6633; assay: as above; assay type: cell-based; settings: ATCC6633, heart infusion agar, inoculum 10^6 cells/ml, read-out: Minimum Inhibitory Concentration (M.I.C.)
Text: as §1, §3, §4

[10] = tested on: Staphylococcus epidermidis; assay: as above; assay type: cell-based; settings: heart infusion agar, inoculum 10^6 cells/ml, read-out: Minimum Inhibitory Concentration (M.I.C.)
Text: as §1, §3, §4

Escherichia coli K-12 = assay: as above; assay type: cell-based; settings: K12, heart infusion agar, inoculum 10^6 cells/ml, read-out: Minimum Inhibitory Concentration (M.I.C.)
Text: as §1, §3, §4

Proteus rettgeri P-6 = assay: as above; assay type: cell-based; settings: Providencia rettgeri, P6; heart infusion agar; inoculum 10^6 cells/ml; read-out: Minimum Inhibitory Concentration (M.I.C.)
Text: as §1, §3, §4

Alcaligenes faecalis A1 = assay: as above; assay type: cell-based; settings: heart infusion agar, inoculum 10^6 cells/ml, read-out: Minimum Inhibitory Concentration (M.I.C.)
Text: as §1, §3, §4

Proteus mirabilis P-6 = assay: as above; assay type: cell-based; settings: P6, heart infusion agar, inoculum 10^6 cells/ml, read-out: Minimum Inhibitory Concentration (M.I.C.)
Text: as §1, §3, §4

[11] = tested on: Staphylococcus aureus Smith; assay: as above; assay type: cell-based; settings: heart infusion agar, inoculum 10^6 cells/ml, read-out: Minimum Inhibitory Concentration (M.I.C.)
Text: as §1, §3, §4

[12] = Relative stability in kidney homogenate of man; assay type: in vitro ADME; settings: human (man) kidney homogenate; 37° C., 60 minutes; drug solution 100-300 μg/ml; read-out: Relative stability: drug remaining as a percentage of initial concentration
Experimental: (§5) *A drug solution (100-300 μg/ml) (0.1 ml) and a kidney homogenate (0.1
(§6) ml) were allowed to react at 37° C. for 60 minutes and the mixture
(§7) was immediately heattreated at 100° C. for 15 seconds. After
(§8) centrifugation, the concentration of the drug remaining in the supernatan
(§9) solution was bioassayed as a percentage of initial concentration by
(§10) Comamonas terrigena B996.
(§11) An overnight culture of Comamonas terrigena B-996 on a nutrient agar slant was suspended in nutrient broth to give a cell suspension of absorbance 0.04 at 610 nm. One percent of the cell suspension in volume was inoculated into molten agar medium containing 0.8% in weight of Kyokuto powdered bouillon (Kyokuto Pharmaceutical Co.) and 1.0% in weight of Bato-agar (Difco Lab.), and 7 ml each of the inoculated agar medium was poured into a 9 cm petri dish to make a Comamonas assay plate.

[13] = Relative stability in phosphate buffer, pH 7.0 (control); assay type: physicochemical; settings: 37° C., 60 minutes, drug solution 100-300 μg/ml, read-out: Relative stability: drug remaining as a percentage of initial concentration
Experimental: as §5, §6, §7, §8, §9, §10, §11

[14] = Relative stability in kidney homogenate of mouse; assay type: in vitro ADME; settings: 37° C., 60 minutes, drug solution 100-300 μg/ml, read-out: Relative stability: drug remaining as a percentage of initial concentration
Experimental: as §5, §6, §7, §8, §9, §10, §11

[15] = Relative stability in kidney homogenate of dog; assay type: in vitro ADME; settings: 37° C., 60 minutes, drug solution 100-300 μg/ml, read-out: Relative stability: drug remaining as a percentage of initial concentration
Experimental: as §5, §6, §7, §8, §9, §10, §11

Structure (SMILES): Cc1nnc(SCC2=C(C(=O)O)N3C(=O)[C@@H](NC(=O)Cn4cnnn4)[C@H]3SC2)s1 [Cefazolin]
MIC [1]: > 400 µg/mL
MIC (Escherichia coli RGN823): 1.56 µg/mL (≈ 3.43 µM)
MIC [2]: 12.5 µg/mL (≈ 27.5 µM)
MIC (Proteus vulgaris GN76): > 400 µg/mL
MIC (Proteus sp. P-22): > 400 µg/mL
MIC (Serratia marcescens T55): > 400 µg/mL
MIC (Enterobacter cloacae 45): > 400 µg/mL
MIC [3]: > 400 µg/mL
MIC (Serratia marcescens S-18): > 400 µg/mL
MIC [4]: > 400 µg/mL
MIC [5]: > 400 µg/mL
MIC [6]: 0.05 µg/mL (≈ 0.11 µM)
MIC (Enterobacter sp. E-8): 1.56 µg/mL (≈ 3.43 µM)
MIC (Providencia sp. P-8): 0.78 µg/mL (≈ 1.72 µM)
MIC [7]: 0.1 µg/mL (≈ 0.22 µM)
MIC (Sarcina lutea): 0.39 µg/mL (≈ 0.858 µM)
MIC [8]: 0.2 µg/mL (≈ 0.44 µM)
MIC [9]: 0.1 µg/mL (≈ 0.22 µM)
MIC [10]: 0.2 µg/mL (≈ 0.44 µM)
MIC (Escherichia coli K-12): 1.56 µg/mL (≈ 3.43 µM)
MIC (Proteus rettgeri P-6): 3.13 µg/mL (≈ 6.89 µM)
MIC (Alcaligenes faecalis A1): 3.13 µg/mL (≈ 6.89 µM)
MIC (Proteus mirabilis P-6): 6.25 µg/mL (≈ 13.8 µM)
MIC [11]: 0.2 µg/mL (≈ 0.44 µM)

remaining at 1 h [12]: 28%
remaining at 1 h [13]: 100%
remaining at 1 h [14]: 10%
remaining at 1 h [15]: 10%
Structure (SMILES): CCC1C(=O)N2C(C(=O)O)=C(SCCNC(C)=O)CC12 (centres unmarked) [Antibiotic PS-5]

remaining at 1 h [12]: 47%
remaining at 1 h [13]: 98%
remaining at 1 h [14]: 20%
remaining at 1 h [15]: 20%
Structure (SMILES): CC(O)C1C(=O)N2C(C(=O)O)=C(SCCNC(=O)CCNC(=O)C(O)C(C)(C)CO)CC12 (centres unmarked) [Antibiotic OA-6129B]

From US4508648A, “Phosphoric ester of antibiotic OA-6129” (Sanraku-Ocean Co., Ltd., priority 1981, dated 1985)
